Assays:
Format in all cases: binding
[1] = biological target: T1, SW480 colon carcinoma cells lysate proteins (Homo sapiens, UniProt Q5XKE5); details: PreyGene KRT79; SW480 cells
T1 sequence (Q5XKE5 1-535): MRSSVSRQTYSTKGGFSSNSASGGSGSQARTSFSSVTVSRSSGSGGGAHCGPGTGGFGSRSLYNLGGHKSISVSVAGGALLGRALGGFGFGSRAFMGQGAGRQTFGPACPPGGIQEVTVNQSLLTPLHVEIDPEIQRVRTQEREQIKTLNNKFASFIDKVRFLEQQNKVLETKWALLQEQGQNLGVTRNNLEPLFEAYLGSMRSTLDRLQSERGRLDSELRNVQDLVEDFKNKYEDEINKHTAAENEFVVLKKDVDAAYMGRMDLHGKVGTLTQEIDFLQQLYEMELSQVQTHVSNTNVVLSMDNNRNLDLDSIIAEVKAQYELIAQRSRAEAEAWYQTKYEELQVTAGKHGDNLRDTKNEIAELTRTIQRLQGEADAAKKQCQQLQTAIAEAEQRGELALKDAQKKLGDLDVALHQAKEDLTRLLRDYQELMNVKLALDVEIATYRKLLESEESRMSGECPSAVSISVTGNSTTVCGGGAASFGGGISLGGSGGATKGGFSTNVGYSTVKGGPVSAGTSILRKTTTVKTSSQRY

[2] = biological target: SW480 colon carcinoma cells lysate proteins (Homo sapiens, UniProt Q01105); details: PreyGene SET
[3] = biological target: SW480 colon carcinoma cells lysate proteins (Homo sapiens, UniProt P06753); details: PreyGene TPM3
[4] = biological target: SW480 colon carcinoma cells lysate proteins (Homo sapiens, UniProt O14602); details: PreyGene EIF1AY
[5] = biological target: SW480 colon carcinoma cells lysate proteins (Homo sapiens, UniProt Q9BQE3); details: PreyGene TUBA1C; SW480 cells
[6] = biological target: SW480 colon carcinoma cells lysate proteins (Homo sapiens, UniProt P31939); details: PreyGene ATIC
[7] = biological target: SW480 colon carcinoma cells lysate proteins (Homo sapiens, UniProt P63244); details: PreyGene GNB2L1; SW480 cells
[8] = biological target: T2, SW480 colon carcinoma cells lysate proteins (Homo sapiens, UniProt P35527); details: PreyGene KRT9
T2 sequence (P35527 1-623): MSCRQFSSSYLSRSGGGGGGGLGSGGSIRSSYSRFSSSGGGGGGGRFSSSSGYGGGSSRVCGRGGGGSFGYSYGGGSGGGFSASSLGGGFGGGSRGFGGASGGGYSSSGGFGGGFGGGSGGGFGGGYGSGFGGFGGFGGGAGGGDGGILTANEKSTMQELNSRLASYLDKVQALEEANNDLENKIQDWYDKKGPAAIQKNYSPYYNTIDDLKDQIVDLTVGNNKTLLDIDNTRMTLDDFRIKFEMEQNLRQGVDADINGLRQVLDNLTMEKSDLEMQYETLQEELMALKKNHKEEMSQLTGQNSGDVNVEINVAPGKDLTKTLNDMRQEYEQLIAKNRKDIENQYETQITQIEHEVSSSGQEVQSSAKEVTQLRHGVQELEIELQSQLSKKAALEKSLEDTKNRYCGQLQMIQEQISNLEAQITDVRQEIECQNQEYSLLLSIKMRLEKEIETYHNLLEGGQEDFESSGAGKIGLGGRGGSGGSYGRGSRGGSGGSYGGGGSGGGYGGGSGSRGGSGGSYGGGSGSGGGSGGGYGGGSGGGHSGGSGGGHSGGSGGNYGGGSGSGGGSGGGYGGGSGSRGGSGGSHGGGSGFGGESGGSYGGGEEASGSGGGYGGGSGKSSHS

[9] = biological target: T3, SW480 colon carcinoma cells lysate proteins (Homo sapiens, UniProt O00232); details: PreyGene PSMD12
T3 sequence (O00232 1-456): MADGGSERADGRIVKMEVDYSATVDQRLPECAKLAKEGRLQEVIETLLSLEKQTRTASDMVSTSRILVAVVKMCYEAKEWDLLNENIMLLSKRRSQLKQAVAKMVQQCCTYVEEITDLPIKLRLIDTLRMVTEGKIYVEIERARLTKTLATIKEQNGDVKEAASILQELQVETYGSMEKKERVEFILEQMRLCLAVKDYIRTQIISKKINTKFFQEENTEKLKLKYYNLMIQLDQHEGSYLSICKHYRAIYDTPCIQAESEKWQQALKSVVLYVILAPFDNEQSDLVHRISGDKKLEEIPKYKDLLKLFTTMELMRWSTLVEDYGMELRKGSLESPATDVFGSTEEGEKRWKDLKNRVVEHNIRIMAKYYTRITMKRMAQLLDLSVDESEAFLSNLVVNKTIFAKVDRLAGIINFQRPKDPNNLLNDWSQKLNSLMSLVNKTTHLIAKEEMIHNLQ

Sequence of SW480 colon carcinoma cells lysate proteins (Homo sapiens, UniProt Q01105) (Q01105 whole entry): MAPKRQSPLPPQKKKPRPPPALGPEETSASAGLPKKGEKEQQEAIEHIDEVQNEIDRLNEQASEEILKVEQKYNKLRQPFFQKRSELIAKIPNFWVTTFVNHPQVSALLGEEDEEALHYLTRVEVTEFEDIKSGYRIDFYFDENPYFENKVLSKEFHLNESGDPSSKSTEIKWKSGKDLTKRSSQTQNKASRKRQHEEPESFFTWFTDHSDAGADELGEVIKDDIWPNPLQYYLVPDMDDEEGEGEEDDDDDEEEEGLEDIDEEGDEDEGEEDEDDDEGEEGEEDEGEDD
Sequence of SW480 colon carcinoma cells lysate proteins (Homo sapiens, UniProt O14602) (O14602 whole entry): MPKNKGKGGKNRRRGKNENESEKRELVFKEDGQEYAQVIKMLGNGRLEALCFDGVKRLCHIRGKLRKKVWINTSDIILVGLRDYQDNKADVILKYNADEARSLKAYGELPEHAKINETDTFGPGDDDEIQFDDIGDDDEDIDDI
Sequence of SW480 colon carcinoma cells lysate proteins (Homo sapiens, UniProt P06753) (P06753 whole entry): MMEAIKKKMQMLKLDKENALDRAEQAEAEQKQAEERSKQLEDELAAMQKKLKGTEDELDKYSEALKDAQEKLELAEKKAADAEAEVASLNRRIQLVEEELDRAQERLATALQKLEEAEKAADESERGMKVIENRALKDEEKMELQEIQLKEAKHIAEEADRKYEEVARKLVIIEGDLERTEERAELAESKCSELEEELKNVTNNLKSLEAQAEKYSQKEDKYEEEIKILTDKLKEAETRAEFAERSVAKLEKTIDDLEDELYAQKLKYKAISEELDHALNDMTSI
Sequence of SW480 colon carcinoma cells lysate proteins (Homo sapiens, UniProt P31939) (P31939 whole entry): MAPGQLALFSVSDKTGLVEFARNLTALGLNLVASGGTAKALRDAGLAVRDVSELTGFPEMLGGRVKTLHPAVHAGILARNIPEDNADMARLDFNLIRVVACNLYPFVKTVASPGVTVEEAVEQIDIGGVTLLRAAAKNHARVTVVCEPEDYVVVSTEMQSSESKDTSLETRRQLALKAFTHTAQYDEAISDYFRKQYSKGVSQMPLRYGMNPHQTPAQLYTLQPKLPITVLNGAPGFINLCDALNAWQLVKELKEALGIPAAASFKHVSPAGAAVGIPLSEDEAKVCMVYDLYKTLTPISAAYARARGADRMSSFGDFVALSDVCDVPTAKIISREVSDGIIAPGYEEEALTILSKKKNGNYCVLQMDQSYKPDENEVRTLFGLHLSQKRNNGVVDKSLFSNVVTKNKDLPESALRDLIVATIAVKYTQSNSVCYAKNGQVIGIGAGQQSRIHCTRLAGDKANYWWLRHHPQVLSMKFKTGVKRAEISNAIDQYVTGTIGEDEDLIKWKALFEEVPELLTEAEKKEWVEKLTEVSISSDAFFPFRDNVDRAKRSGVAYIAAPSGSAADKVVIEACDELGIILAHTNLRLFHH
Sequence of SW480 colon carcinoma cells lysate proteins (Homo sapiens, UniProt Q9BQE3) (Q9BQE3 whole entry): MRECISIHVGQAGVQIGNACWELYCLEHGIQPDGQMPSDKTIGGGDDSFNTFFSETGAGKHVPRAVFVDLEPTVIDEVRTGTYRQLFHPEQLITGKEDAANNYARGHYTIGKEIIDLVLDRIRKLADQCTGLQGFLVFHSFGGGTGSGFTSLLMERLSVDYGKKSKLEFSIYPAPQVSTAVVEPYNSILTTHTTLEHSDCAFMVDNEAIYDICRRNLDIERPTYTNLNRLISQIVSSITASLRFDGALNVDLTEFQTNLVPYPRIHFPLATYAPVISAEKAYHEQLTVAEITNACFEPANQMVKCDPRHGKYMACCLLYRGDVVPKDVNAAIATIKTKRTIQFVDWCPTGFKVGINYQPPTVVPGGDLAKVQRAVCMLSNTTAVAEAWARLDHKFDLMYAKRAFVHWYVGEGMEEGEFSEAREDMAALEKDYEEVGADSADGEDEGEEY

## C[C@H](Oc1cc(-c2cnn(C3CCNCC3)c2)cnc1N)c1c(Cl)ccc(F)c1Cl [(5)-crizotinib]
[1]
  AvgP: 0
  SC.Exp. 1-1: 0
  SC.Exp. 1-2: 1
  SC.Exp. 2-1: 0
  SC.Exp. 2-2: 0
  SC.Exp. Sum: 1
[2]
  AvgP: 0.4696
  SC.Exp. 1-1: 3
  SC.Exp. 1-2: 3
  SC.Exp. 2-1: 4
  SC.Exp. 2-2: 3
  Sum (SC.Exp.): 13
[3]
  AvgP: 0.4204
  SC.Exp. 1-1: 2
  SC.Exp. 1-2: 3
  SC.Exp. 2-1: 0
  SC.Exp. 2-2: 0
  Sum (SC.Exp.): 5
[4]
  AvgP: 0.3949
  SC.Exp. 1-1: 2
  SC.Exp. 1-2: 3
  SC.Exp. 2-1: 0
  SC.Exp. 2-2: 0
  Sum (SC.Exp.): 5
[5]
  AvgP: 0
  SC.Exp. 1-1: 1
  SC.Exp. 1-2: 1
  SC.Exp. 2-1: 0
  SC.Exp. 2-2: 1
  SC.Exp. Sum: 3
[6]
  AvgP: 0.4369
  SC.Exp. 1-1: 3
  SC.Exp. 1-2: 4
  SC.Exp. 2-1: 0
  SC.Exp. 2-2: 0
  Sum (SC.Exp.): 7
[7]
  AvgP: 0
  SC.Exp. 1-1: 12
  SC.Exp. 1-2: 13
  SC.Exp. 2-1: 9
  SC.Exp. 2-2: 11
  SC.Exp. Sum: 45
[8]
  AvgP: 0.1979
  SC.Exp. 1-1: 18
  SC.Exp. 1-2: 15
  SC.Exp. 2-1: 4
  SC.Exp. 2-2: 6
  Sum (SC.Exp.): 43
[9]
  AvgP: 0.35
  SC.Exp. 1-1: 2
  SC.Exp. 1-2: 2
  SC.Exp. 2-1: 0
  SC.Exp. 2-2: 0
  Sum (SC.Exp.): 4

From patent US9446039B2, “Aminoheteroaryl compounds as MTH1 inhibitors” (CEMM—FORSCHUNGSZENTRUM FÜR MOLEKULARE MEDIZIN GMBH, priority 2012, dated 2016)
